Test results reported in the supplement of paper PMC10307832.

How the values were obtained:
Experiment in all cases: relative viability (nuclei count vs DMSO), 5 days (fraction); higher = more cells survive
[1] = system: BEN
Summary of the method: (§1)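 Medians of duplicate plates are given as relative viability. That measure is the nuclei count in treated wells divided by the count in vehicle wells. Counts were taken on 4× images of lung cancer cell lines in 1536-well plates, 5 days after pin-tool dosing the day after seeding with one drug alone or a fixed anchor-drug dose plus five library-drug doses (not always all listed) in √10 steps.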

[2] = system: HCC-15
Summary of the method: as §1

[3] = system: NCI-H1651
Summary of the method: as §1

[4] = system: HCC-78
Summary of the method: as §1

[5] = system: NCI-H358
Summary of the method: as §1

[6] = system: ChaGo-K-1
Summary of the method: as §1

[7] = system: LXF-289
Summary of the method: as §1

[8] = system: H3255
Summary of the method: as §1

[9] = system: NCI-H650
Summary of the method: as §1

[10] = system: LK-2
Summary of the method: as §1

[11] = system: NCI-H596
Summary of the method: as §1

[12] = system: SK-MES-1
Summary of the method: as §1

[13] = system: LC-2-ad
Summary of the method: as §1

[14] = system: NCI-H2087
Summary of the method: as §1

[15] = system: UMC-11
Summary of the method: as §1

[16] = system: NCI-H322M
Summary of the method: as §1

[17] = system: NCI-H838
Summary of the method: as §1

[18] = system: LCLC-97TM1
Summary of the method: as §1

[19] = system: LU99A
Summary of the method: as §1

[20] = system: NCI-H661
Summary of the method: as §1

[21] = system: NCI-H1944
Summary of the method: as §1

[22] = system: NCI-H2342
Summary of the method: as §1

[23] = system: NCI-H1666
Summary of the method: as §1

[24] = system: PC-3 [JPC-3]
Summary of the method: as §1

For COc1cc(N2CCC(C(N)=O)CC2)ccc1Nc1nc(N)c(Cl)c(Nc2ccccc2S(=O)(=O)C(C)C)n1 [HG-5-88-01] + Cc1nc(Nc2ncc(C(=O)Nc3c(C)cccc3Cl)s2)cc(N2CCN(CCO)CC2)n1 [Dasatinib] (partner 0.075 µM), the relative viability ([1]; first compound 0.04 µM) was 0.227, the relative viability ([1]; first compound 0.1265 µM) was 0.337 and the relative viability ([1]; first compound 0.4 µM) was 0.291. It also gave a relative viability ([1]; first compound 1.265 µM) of 0.319, a relative viability ([1]; first compound 4 µM) of 0.26 and a relative viability ([2]; first compound 0.04 µM) of 0.669. It also gave a relative viability ([2]; first compound 0.1265 µM) of 0.59, a relative viability ([2]; first compound 0.4 µM) of 0.416 and a relative viability ([2]; first compound 1.265 µM) of 0.397. It also gave a relative viability ([2]; first compound 4 µM) of 0.347, a relative viability ([3]; first compound 0.04 µM) of 0.368 and a relative viability ([3]; first compound 0.1265 µM) of 0.619. It also gave a relative viability ([3]; first compound 0.4 µM) of 0.375, a relative viability ([3]; first compound 1.265 µM) of 0.249 and a relative viability ([3]; first compound 4 µM) of 0.246. The relative viability ([4]; first compound 0.04 µM) was 0.356, the relative viability ([4]; first compound 0.1265 µM) was 0.286 and the relative viability ([4]; first compound 0.4 µM) was 0.22. The relative viability ([4]; first compound 1.265 µM) was 0.197, the relative viability ([4]; first compound 4 µM) was 0.174 and the relative viability ([5]; first compound 0.04 µM) was 0.142. It also gave a relative viability ([5]; first compound 0.1265 µM) of 0.153, a relative viability ([5]; first compound 0.4 µM) of 0.164 and a relative viability ([5]; first compound 1.265 µM) of 0.11. It also gave a relative viability ([5]; first compound 4 µM) of 0.138, a relative viability ([6]; first compound 0.04 µM) of 0.776 and a relative viability ([6]; first compound 0.1265 µM) of 0.63. The relative viability ([6]; first compound 0.4 µM) was 0.509, the relative viability ([6]; first compound 1.265 µM) was 0.57 and the relative viability ([6]; first compound 4 µM) was 0.401. It also gave a relative viability ([7]; first compound 0.04 µM) of 0.252, a relative viability ([7]; first compound 0.1265 µM) of 0.198 and a relative viability ([7]; first compound 0.4 µM) of 0.116. It also gave a relative viability ([7]; first compound 1.265 µM) of 0.132, a relative viability ([7]; first compound 4 µM) of 0.11 and a relative viability ([8]; first compound 0.04 µM) of 0.338. It also gave a relative viability ([8]; first compound 0.1265 µM) of 0.411, a relative viability ([8]; first compound 0.4 µM) of 0.355 and a relative viability ([8]; first compound 4 µM) of 0.2. For the same molecule, the relative viability ([9]; first compound 0.04 µM) was 0.441, the relative viability ([9]; first compound 0.1265 µM) was 0.46 and the relative viability ([9]; first compound 0.4 µM) was 0.378. It also gave a relative viability ([9]; first compound 1.265 µM) of 0.391, a relative viability ([9]; first compound 4 µM) of 0.304 and a relative viability ([10]; first compound 0.04 µM) of 0.334. The relative viability ([10]; first compound 0.1265 µM) was 0.235, the relative viability ([10]; first compound 0.4 µM) was 0.173 and the relative viability ([10]; first compound 1.265 µM) was 0.247. For the same molecule, the relative viability ([10]; first compound 4 µM) was 0.184, the relative viability ([11]; first compound 0.04 µM) was 0.6 and the relative viability ([11]; first compound 0.1265 µM) was 0.494. For the same molecule, the relative viability ([11]; first compound 0.4 µM) was 0.544, the relative viability ([11]; first compound 1.265 µM) was 0.416 and the relative viability ([11]; first compound 4 µM) was 0.288. The relative viability ([12]; first compound 0.04 µM) was 0.335, the relative viability ([12]; first compound 0.1265 µM) was 0.304 and the relative viability ([12]; first compound 0.4 µM) was 0.124. For the same molecule, the relative viability ([12]; first compound 1.265 µM) was 0.112, the relative viability ([12]; first compound 4 µM) was 0.155 and the relative viability ([13]; first compound 0.04 µM) was 0.633. It also gave a relative viability ([13]; first compound 0.1265 µM) of 0.469, a relative viability ([13]; first compound 0.4 µM) of 0.261 and a relative viability ([13]; first compound 1.265 µM) of 0.287. It also gave a relative viability ([13]; first compound 4 µM) of 0.205, a relative viability ([14]; first compound 0.04 µM) of 0.826 and a relative viability ([14]; first compound 0.1265 µM) of 0.787. It also gave a relative viability ([14]; first compound 0.4 µM) of 0.601, a relative viability ([14]; first compound 1.265 µM) of 0.389 and a relative viability ([14]; first compound 4 µM) of 0.167. It also gave a relative viability ([15]; first compound 0.04 µM) of 0.434, a relative viability ([15]; first compound 0.1265 µM) of 0.449 and a relative viability ([15]; first compound 1.265 µM) of 0.469. The relative viability ([15]; first compound 4 µM) was 0.409, the relative viability ([16]; first compound 0.04 µM) was 0.247 and the relative viability ([16]; first compound 0.1265 µM) was 0.194. It also gave a relative viability ([16]; first compound 0.4 µM) of 0.189, a relative viability ([16]; first compound 4 µM) of 0.216 and a relative viability ([17]; first compound 0.04 µM) of 0.266. The relative viability ([17]; first compound 0.1265 µM) was 0.279, the relative viability ([17]; first compound 0.4 µM) was 0.233 and the relative viability ([17]; first compound 1.265 µM) was 0.251. The relative viability ([17]; first compound 4 µM) was 0.181, the relative viability ([18]; first compound 0.04 µM) was 0.753 and the relative viability ([18]; first compound 0.1265 µM) was 0.956. It also gave a relative viability ([18]; first compound 0.4 µM) of 0.481, a relative viability ([18]; first compound 1.265 µM) of 0.714 and a relative viability ([18]; first compound 4 µM) of 0.477. It also gave a relative viability ([19]; first compound 0.04 µM) of 0.592, a relative viability ([19]; first compound 0.1265 µM) of 0.496 and a relative viability ([19]; first compound 0.4 µM) of 0.434. For the same molecule, the relative viability ([19]; first compound 1.265 µM) was 0.21, the relative viability ([19]; first compound 4 µM) was 0.237 and the relative viability ([20]; first compound 0.04 µM) was 0.939. It also gave a relative viability ([20]; first compound 0.1265 µM) of 0.941, a relative viability ([20]; first compound 0.4 µM) of 0.791 and a relative viability ([20]; first compound 1.265 µM) of 0.514. For the same molecule, the relative viability ([20]; first compound 4 µM) was 0.664, the relative viability ([21]; first compound 0.04 µM) was 0.205 and the relative viability ([21]; first compound 0.1265 µM) was 0.201. It also gave a relative viability ([21]; first compound 0.4 µM) of 0.233, a relative viability ([21]; first compound 1.265 µM) of 0.191 and a relative viability ([21]; first compound 4 µM) of 0.188. The relative viability ([22]; first compound 0.04 µM) was 0.281, the relative viability ([22]; first compound 0.1265 µM) was 0.336 and the relative viability ([22]; first compound 0.4 µM) was 0.308. The relative viability ([22]; first compound 1.265 µM) was 0.307, the relative viability ([22]; first compound 4 µM) was 0.268 and the relative viability ([23]; first compound 0.04 µM) was 0.873. The relative viability ([23]; first compound 0.1265 µM) was 0.837, the relative viability ([23]; first compound 0.4 µM) was 0.643 and the relative viability ([23]; first compound 1.265 µM) was 0.539. For the same molecule, the relative viability ([23]; first compound 4 µM) was 0.389, the relative viability ([24]; first compound 0.04 µM) was 1.03 and the relative viability ([24]; first compound 0.1265 µM) was 0.982. The relative viability ([24]; first compound 0.4 µM) was 0.902, the relative viability ([24]; first compound 1.265 µM) was 0.936 and the relative viability ([24]; first compound 4 µM) was 0.814.
